Values of other authors, collected in US11944640B2, “Zinc-[gamma]-PGA compositions and methods for treating cancer” (XYLONIX PTE. LTD., priority 2016, dated 2024).

How the values were obtained:
[1] = test system: folate receptor (FR), FR-α and FR-β; conditions: FR-α vs FR-β
rats = conditions: 9˜14 days of dietary administration (240 ppm)
[2] = test system: leukocyte-originating cells, including murine thymocytes, murine splenic lymphocytes, human Ramos B, and human Jurkat T cells; conditions: nanomolar concentrations
[3] = test system: androgen-dependent LNCaP and androgen-independent PC3, DU145 prostate cancer cell lines; conditions: micromolar concentrations (1-10 μM)

For `CN(CC1CNc2nc(N)[nH]c(=O)c2N1C)c1ccc(C(=O)N[C@@H](CCC(=O)O)C(=O)O)cc1` (stereo partly shown) [DMTHF, N^5,N^10-dimethyl tetrahydrofolate], the “affinity for folate receptor isoforms (selectivity)” value [1] is given as “higher affinity for FR-α over FR-β”.

In the case of zinc pyrithione, the toxicity (rats) is given as “acute neurological toxicity”, the “mode of cell death” value [2] is given as “induced zinc-specific apoptosis” and the “mode of cell death” value [3] is given as “elicited ATP-depletion and, eventually, ERK and PKC-dependent necrosis”.
